System: CD3^+ T cells
Test: qPCR analysis of in vitro activated CD3+ cells
Type: cell-based
Procedure: (FIG. 4A) Scheme of CD3+ T-cell activation and analysis for various timepoints in order to investigate mitophagy induction in vitro. (FIG. 4B) Analysis of mitochondrial membrane potential within CD8+ T cells, with TMRM^lo representing cells with low mitochondrial membrane potential. Analysis was performed six hours after stimulation with aCD/aCD28 stimulation beads at the presence of the indicated treatments. N=4 per group, *p < 0.05 by Mann Whitney U test. One of two independent experiments are shown. (FIG. 4C) Representative flow histogram and quantification of lysosome formation in CD8+ cells six hours after in vitro stimulation. MFI shown relative to DMSO controls, n=4. Data are normalised mean ± SD, statistical analysis by two-sided t-test. One out of two independent experiments are shown. (FIG. 4D) Mitotracker Red staining of in vitro stimulated CD8+ cells after 24 hours of Urolithin A (UA25 n=6; UA50 n=6) or vehicle control treatment (DMSO: n=4). […] (FIG. 4H) CD8+ cells from Pink1^-/- mice display deficient mitophagy upon UA treatment in vitro: Lysosome formation in CD8+ of Pink1^-/- mice as assessed by Lysotracker staining 6h post stimulation at the presence of UA or DMSO (n=4). […] Quantification of TCF1^hi cells among CD8. (FIG. 4N) Quantification of PD1^hi cells among CD8. (FIG. 4O) Quantification of and Tim3^hi cells among CD8. […]

O=c1oc2cc(O)ccc2c2ccc(O)cc12 [Urolithin A]
autophagy genes and Pink1 (qPCR) (24 h after activation): significant upregulation
transcription of Wnt target genes (qPCR) (24 h after stimulation): increased transcription

— patent US20230277669A1, “USES OF UROLITHINS” (Amazentis SA, priority 2022, published 2023)
